This experiment concerns the target AtzT (Pseudomonas sp. (strain ADP), UniProt Q936X6). As to the kind of experiment: Surface plasmon resonance (SPR) binding to immobilized AtzT, 1:1 steady-state affinity model.
[1] abbreviates: Biacore S200, CM5 chip, 293 K, HBS-P+ buffer with 2%(v/v) DMSO, mean ± standard deviation (n = 3).

Where “and” joins values, the source holds several entries; their conditions need not be identical. Equal entries are not always repeated. Where two headings read alike, the source gives them in different places. Where only a bound is given, the exact number is not on record here.

Chain of AtzT (Q936X6 27-360 limits assumed): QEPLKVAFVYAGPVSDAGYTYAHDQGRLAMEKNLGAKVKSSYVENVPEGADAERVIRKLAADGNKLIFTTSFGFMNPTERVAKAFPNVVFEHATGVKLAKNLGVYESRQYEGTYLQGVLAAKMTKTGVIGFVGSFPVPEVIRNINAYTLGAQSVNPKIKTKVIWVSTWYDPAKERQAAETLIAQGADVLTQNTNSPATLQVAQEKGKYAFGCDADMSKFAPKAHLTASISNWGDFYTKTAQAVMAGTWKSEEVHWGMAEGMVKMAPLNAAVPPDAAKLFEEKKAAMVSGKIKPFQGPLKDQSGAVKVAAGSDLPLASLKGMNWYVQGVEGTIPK

As a reminder, the Kd is the free concentration of one partner at which half of the binding sites on the other are occupied at equilibrium, for simple one-to-one binding. Low readings indicate a tighter complex, high ones a looser complex. `O=c1[nH]c(=O)[nH]c(=O)[nH]1` [Cyanuric acid]: the Kd under setting [1] is 340 ± 30 µM.

Under setting [1], `OB(O)c1ccc(I)cc1` [4-Iodophenylboronic acid] had a Kd of 5000 ± 1000 µM.

Consider `CCNc1nc(Cl)nc(NC(C)C)n1` [Atrazine], for which the Kd was approximately 1500 µM. The Kd under setting [1] was 1500 ± 200 µM.

Take `Nc1ncnc2nc[nH]c12` [Adenine]: the Kd is approximately 2.5 µM. This molecule returned a Kd under setting [1] of 2.5 ± 0.3 µM.

With `Nc1nc(N)nc(N)n1` [Melamine], under setting [1], the Kd is more than 400 µM.

With `CCNc1nc(O)nc(NC(C)C)n1` [2-Hydroxyatrazine], the “fold tighter binding than atrazine” value (2-hydroxyatrazine vs atrazine) was ~700 fold and > 600 fold. Under setting [1], this molecule yielded a Kd of 2.2 ± 0.2 µM.

In the case of `Cc1c[nH]c(=O)[nH]c1=O` [Thymine], binding under setting [1] was put at a Kd of 620 ± 40 µM.

`Nc1nc(N)nc(O)n1` [Ammeline] showed a Kd under setting [1] of 0.36 ± 0.02 µM. Also, where the note is “ammeline vs ammelide”, the “fold difference in K D between ammeline and ammelide” value is recorded as more than 250 fold.

Consider `Nc1cc[nH]c(=O)n1` [Cytosine], for which the Kd under setting [1] is 800 ± 90 µM.

Regarding `O=C(O)c1c(Br)c(Br)c(C(=O)O)c(Br)c1Br` [Tetrabromoterephthalic acid], the Kd under setting [1] was more than 8000 µM.

Molecule `CCC1(CC)C(=O)NC(=O)NC1=O` [Barbitone] yielded a Kd under setting [1] of more than 8000 µM.

Under setting [1], `Nc1nc2c(ncn2[C@@H]2O[C@H](COP(=O)(O)OP(=O)(O)OP(=O)(O)O)[C@@H](O)[C@H]2O)c(=O)[nH]1` [GTP] registered a Kd of more than 8000 µM.

As to `O=c1cc[nH]c(=O)[nH]1` [Uracil], binding under setting [1] was put at a Kd of 1600 ± 300 µM.

For `O=C1CC(=O)NC(=O)N1` [Barbaturic acid], under setting [1], the Kd was more than 8000 µM.

In turn, `Nc1nc2nc[nH]c2c(=O)[nH]1` [Guanine] gave a Kd of approximately 0.11 µM. The molecule also registered a Kd under setting [1] of 0.11 ± 0.02 µM. Besides, under “Supplementary Fig. S4”, the “time in which the majority of the guanine dissociates from AtzT” value is approximately 20 s.

The values above are taken from paper PMC6834077, “The evolving story of AtzT, a periplasmic binding protein” (Acta Crystallographica. Section D, Structural Biology, 2019).
